From US10227323B2, “Glucosylceramide synthase inhibitors for the treatment of diseases” (BIOMARIN PHARMACEUTICAL INC., priority 2013, dated 2019) come the findings set out here.

Each structure is given as a SMILES string.

The target of the first experiment is T1, GCS (Canis lupus familiaris, UniProt A0A8I3MXG6).
T1 sequence (A0A8I3MXG6 1-394): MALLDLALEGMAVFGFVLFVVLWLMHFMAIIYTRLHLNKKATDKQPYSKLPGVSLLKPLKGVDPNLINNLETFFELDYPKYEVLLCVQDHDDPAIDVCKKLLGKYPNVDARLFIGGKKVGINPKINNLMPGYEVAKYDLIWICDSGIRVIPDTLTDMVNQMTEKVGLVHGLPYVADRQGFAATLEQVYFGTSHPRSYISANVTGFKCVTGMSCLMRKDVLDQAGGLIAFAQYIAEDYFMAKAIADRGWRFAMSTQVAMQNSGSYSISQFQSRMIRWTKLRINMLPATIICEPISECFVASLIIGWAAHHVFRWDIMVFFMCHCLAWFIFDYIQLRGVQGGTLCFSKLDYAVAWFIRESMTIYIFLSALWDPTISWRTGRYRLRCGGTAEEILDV
Briefly: Assay 1: GCS Enzymatic Assay (MDCK cell lysate, C6-NBD-Ceramide, LC/MS). Format: biochemical, canine. The following applies: Table 1; MDCK cell lysate; read-out: IC50 (nM) generated from Assay 1. How it is done:
This assay was modified based on the study by Larsen et al. (J. Lipid Res. 2011, 53, 282). Madin-Darby canine kidney (MDCK) cell lysate was prepared using M-PER Mammalian Protein Extraction Reagent (Thermal Scientific) in the presence of a protease inhibitor cocktail (Roche). Protein concentration was determined using BCA assay kit (Pierce). Sixty micrograms of MDCK cell lysate was incubated with various concentrations of a compound described herein from 0.001 μM-10 μM, respectively, in 100 mM Tris buffer (pH 7.5) containing 10 mM MgCl2, 1 mM dithiothreitol, 1 mM EGTA, 2 mM NAD, 100 μM UDP-glucose, 10 μM C6-NBD-Ceramide (Matreya LLC, Pleasant Gap, Pa.), 35 μM dioleoylphosphatidylcholine and 5 μM sulfatide (Sigma) in a final reaction volume of 100 μL at 37° C. for 1 hour. 0.1% DMSO was used as mock treatment or control. The reaction was terminated by adding 100 μL acetonitrile solution and subjected to LC/MS analysis.
The quantitative analysis of NBD-Ceramide and glucosylceramide was performed on a Shimadzu ultra-fast liquid chromatography (Shimadzu, Japan) coupled with API 4000 triple quadrupole mass spectrometer (Applied Biosystems, Concord, Ontario, Canada). Sample separation was conducted on a Waters Xbridge™ BEH130 C18, 100 mm×4.6 mm i.d, 3.5 μm (Milford, Mass., USA). The mobile phase consisted of water and acetonitrile supplemented with 0.1% formic acid (v/v). The flow rate was 1.0 mL/min. The initial mobile phase was 20% acetonitrile and was ramped in a linear fashion to 50% acetonitrile in 0.4 min. From 0.4 to 1.5 min, the gradient was ramped to 98% acetonitrile, and then was held at […] until 8.0 min. Acetonitrile was reset to 20% in 1.5 min, and maintained until 10.0 min. The total run time was 10.0 min. The MS/MS detection was performed in ESI positive mode. The mass transition of NBD-Ceramide was m/z 576.36→558.40 under the collision energy of 15 V, and the mass transition of glucosylceramide was m/z 738.35→558.40 under 21V collision energy. The cell lysate was diluted with equal volume of acetonitrile. Aliquots of 50 μL diluted samples were added to 1.5 mL tubes, and 100 μL of acetonitrile containing internal standard (100 ng/mL tolbutamide) were added for protein precipitation. The mixture were vortexed and then centrifuged at 13000 rpm for 10 min. 70 μL of supernatant were mixed with 140 μL of H2O and the final solution were injected for LC/MS/MS analysis and IC50's and/or percent inhibitions calculated.
`O=C(N[C@H](CN1CCCC1)[C@H](O)c1ccc2c(c1)OCCO2)C(F)(F)c1cc2cc(Br)ccc2o1` [Compound 31, 2-(5-bromobenzofuran-2-yl)-N-((1R,2R)-1-(2,3-dihydrobenzo[b][1,4]dioxin-6-yl)-1-hydroxy-3-(pyrrolidin-1-yl)propan-2-yl)-2,2-difluoroacetamide]: the IC50 is below 50 nM. Same read-out and setting: as for `O=C(N[C@H](CN1CCC1)[C@H](O)c1ccc2c(c1)OCCO2)C(F)(F)c1cc2cc(Cl)ccc2o1` [Compound 32D, N-((1R,2R)-3-(azetidin-1-yl)-1-(2,3-dihydrobenzo[b][1,4]dioxin-6-yl)-1-hydroxypropan-2-yl)-2-(5-chlorobenzofuran-2-yl)-2,2-difluoroacetamide], the figure is below 50 nM; as for `C[C@@H]1CCCN1C[C@@H](NC(=O)C(F)(F)c1cc2cc(Cl)ccc2o1)[C@H](O)c1ccc2c(c1)OCCO2` [Compound 39, 2-(5-chlorobenzofuran-2-yl)-N-((1R,2R)-1-(2,3-dihydrobenzo[b][1,4]dioxin-6-yl)-1-hydroxy-3-((1R)-2-methylpyrrolidin-1-yl)propan-2-yl)-2,2-difluoroacetamide], below 50 nM; as for `C[C@H]1CCCN1C[C@@H](NC(=O)C(F)(F)c1cc2cc(Cl)ccc2o1)[C@H](O)c1ccc2c(c1)OCCO2` [Compound 40, 2-(5-chlorobenzofuran-2-yl)-N-((1R,2R)-1-(2,3-dihydrobenzo[b][1,4]dioxin-6-yl)-1-hydroxy-3-((S)-2-methylpyrrolidin-1-yl)propan-2-yl)-2,2-difluoroacetamide], below 50 nM. On the same count and under the same terms, to `O=C(N[C@H](CN1CCCC1)[C@H](O)c1ccc(OC2CC2)c(Cl)c1)C(F)(F)c1cc2cc(Cl)ccc2o1` [Compound 44, N-((1R,2R)-1-(3-chloro-4-cyclopropoxyphenyl)-1-hydroxy-3-(pyrrolidin-1-yl)propan-2-yl)-2-(5-chlorobenzofuran-2-yl)-2,2-difluoroacetamide] belongs below 50 nM; to `O=C(N[C@H](CN1CC[C@@H](F)C1)[C@H](O)c1ccc2c(c1)OCCO2)C(F)(F)c1cc2cc(Cl)ccc2o1` [Compound 46, 2-(5-chlorobenzofuran-2-yl)-N-((1R,2R)-1-(2,3-dihydrobenzo[b][1,4]dioxin-6-yl)-3-((1R)-3-fluoropyrrolidin-1-yl)-1-hydroxypropan-2-yl)-2,2-difluoroacetamide], 50 to 5000 nM.

The experiment is the same for the next values; noted with them: Table 1; values marked *; MDCK cell lysate.
On to `O=C(N[C@H](CN1CCC1)[C@@H](O)c1ccc2c(c1)OCCO2)C(F)(F)c1cc2cc(Cl)ccc2o1` [Compound 32C, N-((1S,2R)-3-(azetidin-1-yl)-1-(2,3-dihydrobenzo[b][1,4]dioxin-6-yl)-1-hydroxypropan-2-yl)-2-(5-chlorobenzofuran-2-yl)-2,2-difluoroacetamide], for which the “% inhibition generated from Assay 1” value is recorded as “B* (the compound had a % inhibition of greater than or equal to about 3% but less than about 50%)”. The same measure, in the same setting: as for `O=C(N[C@H](CN1CCCC1)[C@H](O)c1cc2c(cc1F)OCCO2)C(F)(F)c1cc2cc(Cl)ccc2o1` [Compound 33, 2-(5-chlorobenzofuran-2-yl)-2,2-difluoro-N-((1R,2R)-1-(7-fluoro-2,3-dihydrobenzo[b][1,4]dioxin-6-yl)-1-hydroxy-3-(pyrrolidin-1-yl)propan-2-yl)acetamide], the entry is “B* (the compound had a % inhibition of greater than or equal to about 3% but less than about 50%)”.

As to `O=C(N[C@H](CN1CCCC1)[C@@H](O)c1cc2c(cc1F)OCCO2)C(F)(F)c1cc2cc(Cl)ccc2o1` [Compound 33A, 2-(5-chlorobenzofuran-2-yl)-2,2-difluoro-N-((1S,2R)-1-(7-fluoro-2,3-dihydrobenzo[b][1,4]dioxin-6-yl)-1-hydroxy-3-(pyrrolidin-1-yl)propan-2-yl)acetamide], the “% inhibition generated from Assay 1” value is “B* (the compound had a % inhibition of greater than or equal to about 3% but less than about 50%)”. The same measure, in the same setting: as for `O=C(N[C@H](CN1CCCC1)[C@H](O)c1ccc2ncccc2c1)C(F)(F)c1cc2cc(Cl)ccc2o1` [Compound 34, 2-(5-chlorobenzofuran-2-yl)-2,2-difluoro-N-((1R,2R)-1-hydroxy-3-(pyrrolidin-1-yl)-1-(quinolin-6-yl)propan-2-yl)acetamide], the entry is “A* (the compound had a % inhibition of a percent inhibition of greater than or equal to about 50%)”; as for `O=C(N[C@H](CN1CCCC1)[C@@H](O)c1ccc2ncccc2c1)C(F)(F)c1cc2cc(Cl)ccc2o1` [Compound 34G, 2-(5-chlorobenzofuran-2-yl)-2,2-difluoro-N-((1S,2R)-1-hydroxy-3-(pyrrolidin-1-yl)-1-(quinolin-6-yl)propan-2-yl)acetamide], “B* (the compound had a % inhibition of greater than or equal to about 3% but less than about 50%)”. Same read-out and setting: as for `CC1(C)CCN(C[C@@H](NC(=O)C(F)(F)c2cc3cc(Cl)ccc3o2)[C@@H](O)c2ccc3c(c2)OCCO3)C1` [Compound 36C, 2-(5-chlorobenzofuran-2-yl)-N-((1S,2R)-1-(2,3-dihydrobenzo[b][1,4]dioxin-6-yl)-3-(3,3-dimethylpyrrolidin-1-yl)-1-hydroxypropan-2-yl)-2,2-difluoroacetamide], the entry is “B* (the compound had a % inhibition of greater than or equal to about 3% but less than about 50%)”; as for `O=C(N[C@H](CN1CCCC1)[C@H](O)c1ccc(OC(F)(F)F)cc1)C(F)(F)c1cc2cc(Cl)ccc2o1` [Compound 37, 2-(5-chlorobenzofuran-2-yl)-2,2-difluoro-N-((1R,2R)-1-hydroxy-3-(pyrrolidin-1-yl)-1-(4-(trifluoromethoxy)phenyl)propan-2-yl)acetamide], “B* (the compound had a % inhibition of greater than or equal to about 3% but less than about 50%)”. The same measure, in the same setting: as for `O=C(N[C@H](CN1CCCC1)[C@@H](O)c1ccc(OC(F)(F)F)cc1)C(F)(F)c1cc2cc(Cl)ccc2o1` [Compound 37G, 2-(5-chlorobenzofuran-2-yl)-2,2-difluoro-N-((1S,2R)-1-hydroxy-3-(pyrrolidin-1-yl)-1-(4-(trifluoromethoxy)phenyl)propan-2-yl)acetamide], the entry is “B* (the compound had a % inhibition of greater than or equal to about 3% but less than about 50%)”; as for `O=C(N[C@H](CN1CC[C@H](F)C1)[C@H](O)c1ccc2c(c1)OCCO2)C(F)(F)c1cc2cc(Cl)ccc2o1` [Compound 38, 2-(5-chlorobenzofuran-2-yl)-N-((1R,2R)-1-(2,3-dihydrobenzo[b][1,4]dioxin-6-yl)-3-((S)-3-fluoropyrrolidin-1-yl)-1-hydroxypropan-2-yl)-2,2-difluoroacetamide], “B* (the compound had a % inhibition of greater than or equal to about 3% but less than about 50%)”; as for `O=C(N[C@H](CN1CCC(F)(F)C1)[C@H](O)c1ccc2c(c1)OCCO2)C(F)(F)c1cc2cc(Cl)ccc2o1` [Compound 41, 2-(5-chlorobenzofuran-2-yl)-N-((1R,2R)-3-(3,3-difluoropyrrolidin-1-yl)-1-(2,3-dihydrobenzo[b][1,4]dioxin-6-yl)-1-hydroxypropan-2-yl)-2,2-difluoroacetamide], “B* (the compound had a % inhibition of greater than or equal to about 3% but less than about 50%)”. `O=C(N[C@H](CN1CCCC1)[C@@H](O)c1ccc(OC2CC2)c(Cl)c1)C(F)(F)c1cc2cc(Cl)ccc2o1` [Compound 44H, N-((1S,2R)-1-(3-chloro-4-cyclopropoxyphenyl)-1-hydroxy-3-(pyrrolidin-1-yl)propan-2-yl)-2-(5-chlorobenzofuran-2-yl)-2,2-difluoroacetamide]: the “% inhibition generated from Assay 1” value is reported as “B* (the compound had a % inhibition of greater than or equal to about 3% but less than about 50%)”.

The term IC50 denotes the concentration needed to halve the response being measured.
